Measured values published in PubChem BioAssay (NCI).
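1) Cells in 96-well plates. 2) Compound, 48 h, 5 concentrations. 3) Linear interpolation between surrounding doses. 4) Unreached endpoint = highest concentration. Here, GI50 denotes the concentration required for 50% inhibition of growth. TGI marks complete inhibition of growth.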

Tested on: MDA-MB-468 breast
Assay: inhibition of tumour cell growth, NCI panel, 48 h

| Compound | GI50 | TGI |
| --- | --- | --- |
| O=C1N[C@@H]2[C@@H](O)[C@@H](O)[C@H](O)C[C@H]2c2cc3c(c(O)c21)OCCO3 | 0.0955 µM | 0.455 µM |
| COc1ccc(Cn2cc3c(c2-c2cc(OC)c(OC)c(OC)c2)CCCc2cnoc2-3)cc1 | 0.563 µM | > 100 µM |
| CCOC(=O)C1=CCCC[C@H]1S(=O)(=O)Nc1ccc(F)cc1Cl | 10.8 µM | 42.4 µM |
| Cc1c(C)n(CCCN2CCN(C)CC2)c2ccc(Oc3cccc(C(=O)N4CCN(CCc5ccc(F)cc5)CC4)c3)cc12 | 1.16 µM | 2.47 µM |
| Fc1ccc(-c2c(-c3ccncc3)nc3n2CCS3)cc1 | > 10.4 µM | > 25 µM |
| Oc1c(Cl)cc(Cl)c(Cl)c1CNCCNCc1c(O)c(Cl)cc(Cl)c1Cl | 0.917 µM | 5.85 µM |
| Cc1ccc(O)c(NC(=O)c2cccc(Nc3ccnc(C(F)(F)F)c3)c2)c1 | 3.19 µM | 54.9 µM |
| O=C(CSc1nc2c(n1Nc1ccccc1)-c1ccccc1SC2)Nc1nc(-c2ccc(Cl)cc2)cs1 | 18 µM | > 100 µM |
| Cc1onc(-c2ccccc2)c1C(=O)N/N=C/c1cc(Cl)cc(Cl)c1O | 3.89 µM | 42.9 µM |
| COc1cc(/C=C/c2cc(/C=C/c3ccc(O)c(OC)c3)n(C(=O)c3ccc(Cl)cc3)n2)ccc1O | 2.64 µM | 7.9 µM |
| Fc1ccc(-c2cc3nc(C(Cl)Cl)nc(-c4ccco4)n3n2)cc1 | 0.242 µM | 0.793 µM |
| O=C1Nc2c(ccc(Cl)c2Cl)/C1=C/c1cc(Br)c(O)c(Br)c1 | 2.96 µM | > 26.3 µM |
| COc1cc2c(cc1OC(C)C)[C@H](c1ccc(Cl)cc1)N(c1ccc(N(C)CC3CCC(N4CCN(C)C(=O)C4)CC3)cc1)C(=O)C2 (some centres not stated) | 3.37 µM | 8.93 µM |
| CC(C)(C)C(=O)OCOP(=O)(NCc1ccccc1)C1CCCN(O)C1=O (configuration not stated) | 1.43 µM | 5.07 µM |
| Clc1c(Cl)[n+](Cc2ccc3ccccc3c2)cn1Cc1ccc2ccccc2c1 | 0.668 µM | 2.28 µM |
| O=C(N/N=C/c1ccc([N+](=O)[O-])o1)c1[nH]c2ccc(Br)cc2c1-c1ccccc1 | 0.304 µM | 1.7 µM |
| Cc1cc2nc(NCCN)n(Cc3ccc(F)c(Cl)c3)c2cc1C | 3.61 µM | 15.8 µM |
| O=c1c2ccccc2sc2c(NCCCNCCO)nc3ccccc3c12 | 1.52 µM | 3.12 µM |
| C=C(c1ccc(OC)c(/C=C/C(=O)c2ccc3c(c2)OCO3)c1)c1cc(OC)c(OC)c(OC)c1 | 1.65 µM | 8.92 µM |
| CC[C@H](C)[C@H](NC(=O)[C@H]1CCCCN1C)C(=O)N(C)[C@H](C[C@@H](OC(C)=O)c1cccc(C(=O)N[C@@H](Cc2ccccc2)C[C@H](C)C(=O)OC)n1)C(C)C | 0.000917 µM | – |
| CN[C@H]1CN(c2ccc3c(=O)c(C(=O)O)cn(-c4nccs4)c3n2)C[C@@H]1OC | 0.822 µM | 2.86 µM |
| CCOC(=O)c1c(NC(=O)c2ccc(C(F)(F)F)cc2)sc2c(CN3CCN(C)CC3)c(O)ccc12 | 1.78 µM | 3.93 µM |

| Compound | GI50 | TGI |
| --- | --- | --- |
| CNC(=O)c1c(C)oc2cc(Oc3ncnc4cc(OC)c(OC)cc34)ccc12 | > 100 µM | > 100 µM |
| COc1cc(C(=O)NC2CCc3cc(OC)c(OC)c(OC)c3-c3ccc(OC)c(=O)cc32)cc(OC)c1OC (configuration not stated) | 0.0853 µM | > 100 µM |
| COc1ccc2ncn(-c3cc(O[C@H](C)c4ccccc4C(F)(F)F)c(C(N)=O)s3)c2c1 | 0.067 µM | 1 µM |
| COc1ccccc1Nc1cc(O)c2c(=O)cc(-c3ccccc3)oc2c1 | 1.5 µM | 6.42 µM |
| COc1cc2c(c(OC)c1OC)-c1ccc(OC)c(=O)cc1C(NC(=O)COc1ccccc1)CC2 (configuration not stated) | < 0.01 µM | 59.4 µM |
| CC(C)C[C@H](NC(=O)CNC(=O)c1cc(Cl)ccc1Cl)B(O)O | < 0.0137 µM | 0.0217 µM |
| O=c1oc2ccc(I)cc2c(=O)n1-c1ccc(Br)cc1F | 1.45 µM | 4.88 µM |
| OC(CNc1ccnc2cc(Cl)ccc12)CNc1ccnc2cc(Cl)ccc12 | 1.43 µM | 2.93 µM |
| CC(=O)O[C@@H]1C2CCC3C(CC[C@@]4(C)C3CC[C@@H]4C(C)N(C)C)[C@@]2(C)CC[C@@H]1NC(=O)C=C(C)C (some centres not stated) | 1.4 µM | 3.06 µM |
| Cc1cccc2sc(/N=C(\N)C(Br)Br)nc12 | 1.63 µM | 4.58 µM |
| CCc1ccc(Oc2c(-c3ccc(OCc4ccc(Cl)cc4)cc3O)n[nH]c2C(F)(F)F)cc1 | 1.73 µM | 3.96 µM |
| NS(=O)(=O)OC[C@H]1C[C@@H](Nc2ccnc3cc(-c4cccc(SC(F)(F)F)c4)nn23)[C@H](O)[C@@H]1O | < 0.01 µM | < 0.0127 µM |
| COc1ccc(C2(Cl)c3ccccc3N(c3ccccc3)c3ccccc32)cc1 | 0.391 µM | 2.1 µM |
| COc1ccc(/C=C\c2cc(OC)c(OC)c(OC)c2)cc1OCC(=O)Nc1nc2ccc(F)cc2s1 | 3.68 µM | > 100 µM |
| CCOC(=O)c1cc(C(=O)c2ccc(OC)cc2)n2ccc(/C=C/c3cc[n+](CC(=O)c4ccc(OC)cc4)cc3)cc12 | 1.71 µM | 3.63 µM |
| COc1ccc(C(=O)C(CN(C)C)CN(C)C)cc1 | 1.47 µM | 4.31 µM |
| C=CN(C(=O)N1CCN(c2cc3c(cc2F)c(=O)c(C(=O)O)cn3C2CC2)CC1)c1nc(-c2ccc(OC)cc2)cs1 | 3.07 µM | 28 µM |
| C[C@@H](Oc1cc(-n2cnc3ccc(OC4CCN(C)CC4)cc32)sc1C(N)=O)c1ccccc1Cl | 0.00441 µM | 0.202 µM |
| Cc1cc2c(C(=O)NC[C@H](C)c3ccccc3)c(O)c(O)cc2c(O)c1-c1c(C)cc2c(C(=O)NC[C@H](C)c3ccccc3)c(O)c(O)cc2c1O | 0.596 µM | 3.38 µM |
| O=C1NC(=C(Cl)Cl)/C(=N/S(=O)(=O)N2CCCCC2)N1 | 2.39 µM | 13.3 µM |
| CCCCCCCCCCCCCCCC1=NCC[N+]1(CCO)CCO | 2.13 µM | 7.03 µM |
| CNC(=O)c1ccc(N2C(=S)N(c3cnc(C#N)c(C(F)(F)F)c3)C(=O)C23CCC3)cc1F | 49.6 µM | > 100 µM |
